Usually EC50 stands for the concentration at which the effect is half-maximal.

In this test the target is T1, human ADRA2B receptor (Homo sapiens, UniProt P18089).
T1 construct: expressed in transfected cells
T1 sequence (P18089 1-450): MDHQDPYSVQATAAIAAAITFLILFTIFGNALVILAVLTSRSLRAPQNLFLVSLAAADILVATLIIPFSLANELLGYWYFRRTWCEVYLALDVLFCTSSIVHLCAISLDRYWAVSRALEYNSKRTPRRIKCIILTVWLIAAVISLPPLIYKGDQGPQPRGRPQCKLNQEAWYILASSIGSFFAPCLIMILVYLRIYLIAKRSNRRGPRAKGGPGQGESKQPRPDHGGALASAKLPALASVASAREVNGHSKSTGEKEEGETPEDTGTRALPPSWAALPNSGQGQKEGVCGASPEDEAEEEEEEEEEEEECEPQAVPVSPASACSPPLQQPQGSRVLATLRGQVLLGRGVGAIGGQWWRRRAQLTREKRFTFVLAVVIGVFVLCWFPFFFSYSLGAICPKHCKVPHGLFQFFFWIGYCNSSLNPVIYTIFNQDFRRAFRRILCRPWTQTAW
In words: ADRA2B arrestin agonist assay. It counts as cell-based. The note with it: CHO-K1 cells stably expressing human ADRA2B; read-out: Beta-Arrestin - Human Alpha2B EC50. In short, it runs like this:
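CHO-K1 cells stably expressing human ADRA2B, thawed from frozen stock and plated overnight, were treated with agonist for 2 h at 37 °C. Arrestin recruitment detected by luminescence after 2 h with detection reagents at room temperature.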
In the case of `COc1nccc(CC(c2cccc(C)c2)c2c[nH]cn2)n1` (centres unmarked) [Compound 337, 4-[2-(4-imidazolyl)-2-(m-tolyl)ethyl]-2-methoxypyrimidine], the EC50 is 10 to 50 nM.
For the molecule `Fc1c(Cl)cccc1C(Cc1cnco1)c1c[nH]cn1` (centres unmarked) [Compound 392, 5-[2-(3-chloro-2-fluorophenyl)-2-(4-imidazolyl)ethyl]-1,3-oxazole], the concentration for a half-maximal effect (EC50) lay within 10 to 50 nM.
`c1cc2c(c([C@H](Cc3cocn3)c3c[nH]cn3)c1)OCC2` [Compound 372, 4-[(S)-2-(2,3-dihydro-1-benzofuran-7-yl)-2-(4-imidazolyl)ethyl] 1,3-oxazole]: the EC50 fell in the range of 50 to 500 nM.
With `COc1nccc(CC(c2c[nH]cn2)c2cccc(C(F)(F)F)c2C)n1` (centres unmarked) [Compound 202, 4-{2-(4-imidazolyl)-2 [3-(trifluoromethyl)-2-tolyl]ethyl}-2-methoxypyrimidine], the EC50 is less than 10 nM.
As for `Cc1cccc(C(Cc2ccc3nccn3c2)c2c[nH]cn2)c1C` (centres unmarked) [Compound 401, 4-[2-(1,3a-diaza-5-indenyl)-1-(2,3-xylyl)ethyl]imidazole], the EC50 is less than 10 nM.
Regarding `Cn1ccc2cccc(C(Cc3cocn3)c3c[nH]cn3)c21` (centres unmarked) [Compound 377, 4-[2-(4-imidazolyl)-2-(1-methyl-7-indolyl)ethyl]-1,3-oxazole], the EC50 lay within 50 to 500 nM.
With `COCc1cc(CC(c2c[nH]cn2)c2cccc(C)c2C)ccn1` (centres unmarked) [Compound 295, 4-{2-[2-(methoxymethyl)-4-pyridyl]-1-(2,3-xylyl)ethyl}imidazole], the EC50 is less than 10 nM.
For `Cc1nc(C[C@H](c2c[nH]cn2)c2cccc(C)c2C)co1` [Compound 374, 4-[(S)-2-(4-imidazolyl)-2-(2,3-xylyl)ethyl]-2-methyl-1,3-oxazole], the EC50 is more than 500 nM.
The value for `COCc1cccc(CC(c2c[nH]cn2)c2cccc(C)c2C)n1` (centres unmarked) [Compound 294, 4-{2-[6-(methoxymethyl)-2-pyridyl]-1-(2,3-xylyl)ethyl}imidazole] was less than 10 nM; that for `Cc1cc(CC(c2c[nH]cn2)c2cccc(C)c2C)ncn1` (centres unmarked) [Compound 257, 4-[2-(4-imidazolyl)-2-(2,3-xylyl)ethyl]-6-methylpyrimidine] was more than 500 nM; that for `CCOc1c(F)cccc1C(Cc1ccnc(OC)n1)c1c[nH]cn1` (centres unmarked) [Compound 197, 4-[2-(2-ethoxy-3-fluorophenyl)-2-(4-imidazolyl)ethyl]-2-methoxypyrimidine] was 50 to 500 nM.
The value for `Cc1cccc(C(Cn2cccn2)c2c[nH]cn2)c1C` (centres unmarked) [Compound 406, 1-[2-(4-imi-dazolyl)-2-(2,3-xylyl)ethyl]pyra-zole] was 10 to 50 nM.
The value for `Cc1nccc(C[C@@H](c2c[nH]cn2)c2cccc(C)c2F)n1` [Compound 141, 4-[(R)-2-(2-fluoro-3-tolyl)-2-(4-imidazolyl)ethyl]-2-methylpyrimidine] was less than 10 nM; that for `COCc1nccc(CC(c2c[nH]cn2)c2cccc3c2OCCO3)n1` (centres unmarked) [Compound 356, 4-[2-(2,3-dihydro-1,4-benzodioxin-5-yl)-2-(4-imidazolyl)ethyl]-2-(methoxymethyl)pyrimidine] was 10 to 50 nM; that for `Cc1cccc([C@H](Cc2cnco2)c2c[nH]cn2)c1F` [Compound 370, 5-[(S)-2-(2-fluoro-3-tolyl)-2-(4-imidazolyl)ethyl]-1,3-oxazole] was 10 to 50 nM.
As to `Cc1cccc([C@H](Cc2cccc(CF)n2)c2c[nH]cn2)c1C` [Compound 151, 4-{(S)-2-[6-(fluoromethyl)-2-pyridyl]-1-(2,3-xylyl)ethyl}imidazole], the EC50 was in the range of 50 to 500 nM.
With `Cc1cccc([C@@H](Cc2cn(C)nn2)c2c[nH]cn2)c1F` [Compound 249, 4-[(R)-2-(2-fluoro-3-tolyl)-2-(4-imidazolyl)ethyl]-1-methyl-1H-1,2,3-triazole], the EC50 was less than 10 nM.
For `Cc1cccc(C(Cc2ccc(N(C)C)nc2)c2c[nH]cn2)c1C` (centres unmarked) [Compound 292, N,N-dimethyl{5-[2-(4-imidazolyl)-2-(2,3-xylyl)ethyl]-2-pyridyl}amine] the value was less than 10 nM.
On to `Cc1cc(CC(c2c[nH]cn2)c2cccc(Cl)c2F)ncn1` (centres unmarked) [Compound 163, 4-[2-(3-chloro-2-fluorophenyl)-2-(4-imidazolyl)ethyl]-6-methylpyrimidine], for which the EC50 lay in the range of 50 to 500 nM.
The value for `c1cc2c(c([C@@H](Cc3cocn3)c3c[nH]cn3)c1)OCCO2` [Compound 383, 4-[(R)-2-(2,3-dihydro-1,4-benzodioxin-5-yl)-2-(4-imidazolyl)ethyl] 1,3-oxazole] was more than 500 nM; that for `Cc1cccc(C(Cc2cnc3cnccn23)c2c[nH]cn2)c1C` (centres unmarked) [Compound 285, 3-[2-(4-imidazolyl)-2-(2,3-xylyl)ethyl]-1,3a,6-triazaindene] was 10 to 50 nM; that for `Cc1cccc([C@H](Cc2cn(C)nn2)c2c[nH]cn2)c1C` [Compound 240, 4-[(S)-2-(4-imidazolyl)-2-(2,3-xylyl)ethyl]-1-methyl-1H-1,2,3-triazole] was less than 10 nM.
On to `Cc1cc(CC(c2c[nH]cn2)c2cccc(C)c2C)c(F)cn1` (centres unmarked) [Compound 315, 4-[2-(5-fluoro-2-methyl-4-pyridyl)-1-(2,3-xylyl)ethyl]imidazole], for which the EC50 was less than 10 nM.
The value for `Cc1cccc([C@@H](Cc2cc[nH]n2)c2c[nH]cn2)c1C` [Compound 234, 3-[(R)-2-(4-imidazolyl)-2-(2,3-xylyl)ethyl]pyrazole] was more than 500 nM.
For the molecule `Cc1cccc(C[C@@H](c2c[nH]cn2)c2cccc3c2OCC3)n1` [Compound 265, 4-[(R)-1-(2,3-dihydro-1-benzofuran-7-yl)-2-(6-methyl-2-pyridyl)ethyl]imida-zole], the EC50 is 10 to 50 nM.
Consider `Cc1nccc(C[C@H](c2c[nH]cn2)c2cccc(C)c2F)n1` [Compound 142, 4-[(S)-2-(2-fluoro-3-tolyl)-2-(4-imidazolyl)ethyl]-2-methylpyrimidine], for which the 50% effective concentration (EC50) was more than 500 nM.
Regarding `c1cc2c(c(C(Cc3cccn4ccnc34)c3c[nH]cn3)c1)OCC2` (centres unmarked) [Compound 400, 4-[2-(1,3a-diaza-7-indenyl)-1-(2,3-dihydro-1-benzofuran-7-yl)ethyl]imidazole], the EC50 was more than 500 nM.
Consider `Cc1nc(CC(c2c[nH]cn2)c2cccc(C)c2C)no1` (centres unmarked) [Compound 243, 3-[2-(4-imidazolyl)-2-(2,3-xylyl)ethyl]-5-methyl-1,2,4-oxadiazole-formic acid (1/1)], for which the EC50 was 50 to 500 nM.
For `c1cc2c(c(C(Cc3ccn4ccnc4c3)c3c[nH]cn3)c1)OCC2` (centres unmarked) [Compound 398, 4-[2-(1,3a-diaza-6-indenyl)-1-(2,3-dihydro-1-benzofuran-7-yl)ethyl]imidazole] the value was less than 10 nM; for `Cc1cccc(C(Cc2cn(C3CC3)nn2)c2c[nH]cn2)c1C` (centres unmarked) [Compound 404, 1-cyclopropyl-4-[2-(4-imi-dazolyl)-2-(2,3-xylyl)ethyl]-1H-1,2,3-triazole], less than 10 nM; for `CC(C)n1cc(C[C@@H](c2c[nH]cn2)c2cccc3c2OCC3)cn1` [Compound 297, 4-[(R)-2-(2,3-dihydro-1-benzofuran-7-yl)-2-(4-imidazolyl)ethyl] 1-isopropylpyrazole], more than 500 nM.
For `OCc1nccc(CC(c2c[nH]cn2)c2cccc3c2OCC3)n1` (centres unmarked) [Compound 344, {4-[2-(2,3-dihydro-1-benzofuran-7-yl)-2-(4-imidazolyl)ethyl]-2-pyrimidinyl}methanol] the value was less than 10 nM.

These data come from patent US20260042769A1, “TRIARYL AGONISTS OF ALPHA-2 ADRENERGIC RECEPTORS” (ALCEPTOR THERAPEUTICS, INC., priority 2023, published 2026).
